Source: US12721810B2, “Aqueous ophthalmic solutions of phentolamine and medical uses thereof” (Opus Genetics, Inc., priority 2013, dated 2026)
Counter-ions that a name gives are not always drawn.

Assay: Stability on storage: HPLC assay for API, impurities and degradants (Examples 1-4)
Type: physicochemical
Details: period of 4 weeks, 2-8° C. to 60° C.
Procedure: (§1) The injection volume was 10 μL.
as §1

stability in water: degrades rapidly
Compound: Cc1ccc(N(CC2=NCCN2)c2cccc(O)c2)cc1 [phentolamine mesylate]
